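Results reflect a 48-hour exposure of cells in 96-well plates to compound at five concentrations. GI50 marks 50% less growth. TGI marks complete inhibition of growth.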
Key:
Assay in all cases: NCI anticancer screen, dose series, 48 h
[1] = test system: HCT-15 colon
[2] = test system: HL-60(TB) leukemia
[3] = test system: MOLT-4 leukemia
[4] = test system: COLO 205 colon
[5] = test system: MALME-3M melanoma
[6] = test system: SF-268 CNS
[7] = test system: A549 NSCLC
[8] = test system: NCI-H23 lung
[9] = test system: HCT-116 colon
[10] = test system: K-562 leukemia
[11] = test system: 786-0 renal
[12] = test system: NCI-H522 lung
[13] = test system: SF-295 CNS
[14] = test system: MDA-MB-435
[15] = test system: SF-539 CNS
[16] = test system: MDA-MB-231 breast
[17] = test system: ACHN renal
[18] = test system: OVCAR-5 ovarian
[19] = test system: U251 CNS
[20] = test system: HS 578T breast
[21] = test system: SN12C renal
[22] = test system: HT29 colon
[23] = test system: HOP-92 NSCLC
[24] = test system: UACC-257 melanoma
[25] = test system: KM12 colon
[26] = test system: UACC-62 melanoma
[27] = test system: SR leukemia
[28] = test system: CAKI-1 renal
[29] = test system: CCRF-CEM leukemia
[30] = test system: OVCAR-3 ovarian
[31] = test system: PC-3 prostate
[32] = test system: SK-OV-3 ovarian
[33] = test system: TK-10 renal
[34] = test system: M14 melanoma
[35] = test system: SW-620 colon
[36] = test system: T-47D breast
[37] = test system: UO-31 renal
[38] = test system: HOP-62 NSCLC
[39] = test system: NCI/ADR-RES ovarian
[40] = test system: MCF7 breast
[41] = test system: EKVX NSCLC
[42] = test system: SNB-19 CNS
[43] = test system: OVCAR-8 ovarian
[44] = test system: RPMI-8226 leukemia
[45] = test system: NCI-H460 lung
[46] = test system: BT-549 breast
[47] = test system: SK-MEL-2 melanoma
[48] = test system: DU-145 prostate
[49] = test system: IGROV1 ovarian
[50] = test system: SK-MEL-5 melanoma
[51] = test system: HCC-2998 colon
[52] = test system: RXF 393 renal
[53] = test system: SK-MEL-28 melanoma
[54] = test system: OVCAR-4 ovarian
[55] = test system: LOX IMVI melanoma

`c1ccc2c(c1)SC1=Nc3sc4ccccc4[n+]3CN12` showed a TGI [1] greater than 100 µM, a TGI [2] of 82.3 µM and a TGI [3] of 39 µM. For the same compound, the TGI [4] was 10.9 µM, the TGI [5] was 37.6 µM and the TGI [6] was 49.7 µM. It also gave a TGI [7] of 25.5 µM, a TGI [8] of 59.8 µM and a TGI [9] greater than 100 µM. It also gave a TGI [10] of 81.6 µM, a TGI [11] of 83.7 µM and a TGI [12] of 9.03 µM. The TGI [13] was greater than 100 µM, the TGI [14] was 49.5 µM and the TGI [15] was 69 µM. It also gave a TGI [16] of 49.2 µM, a TGI [17] greater than 100 µM and a TGI [18] of 71.1 µM. It also gave a TGI [19] of 21.6 µM, a TGI [20] of 67.9 µM and a TGI [21] of 71.1 µM. For the same compound, the TGI [22] was 37.7 µM, the TGI [23] was 47.5 µM and the TGI [24] was greater than 100 µM. It also gave a TGI [25] of 29.3 µM, a TGI [26] of 45.1 µM and a TGI [27] of 56.8 µM. For the same compound, the TGI [28] was 42.4 µM, the TGI [29] was greater than 100 µM and the TGI [30] was 11.7 µM. For the same compound, the TGI [31] was greater than 100 µM, the TGI [32] was 66.8 µM and the TGI [33] was 76.6 µM. It also gave a TGI [34] of 66.2 µM, a TGI [35] greater than 100 µM and a TGI [36] of 78 µM. For the same compound, the TGI [37] was greater than 100 µM, the TGI [38] was greater than 100 µM and the TGI [39] was greater than 100 µM. The TGI [40] was 42.9 µM, the TGI [41] was 53.5 µM and the TGI [42] was greater than 100 µM. The TGI [43] was greater than 100 µM, the TGI [44] was 59.6 µM and the TGI [45] was 44.1 µM. For the same compound, the TGI [46] was greater than 100 µM, the TGI [47] was 28.7 µM and the TGI [48] was greater than 100 µM. The TGI [49] was 46.3 µM and the TGI [50] was 10.9 µM.
With `COC(=O)C1=C(O)[C@H](C(=O)OC)C2(O)[C@@H](C(=O)OC)[C@H]1C[C@@H](c1ccc(OC(=O)n3ccnc3)cc1)[C@@H]2C(=O)OC` the GI50 [1] was 21 µM, the TGI [1] was greater than 50 µM and the GI50 [2] was 13.3 µM. The TGI [2] was greater than 50 µM, the GI50 [4] was 9.69 µM and the TGI [4] was 34.1 µM. For the same compound, the GI50 [51] was 9.63 µM, the TGI [51] was 18 µM and the GI50 [52] was 11.8 µM. The TGI [52] was 26.7 µM, the GI50 [53] was 10.1 µM and the TGI [53] was 30.5 µM. It also gave a GI50 [6] of 18.7 µM, a TGI [6] greater than 50 µM and a GI50 [7] of 15.2 µM. The TGI [7] was greater than 50 µM, the GI50 [8] was 13.9 µM and the TGI [8] was 25.6 µM. The GI50 [9] was 16.8 µM, the TGI [9] was greater than 50 µM and the GI50 [10] was 20.3 µM. It also gave a TGI [10] greater than 50 µM, a GI50 [11] of 18.6 µM and a TGI [11] of 45.6 µM. It also gave a GI50 [12] of 10.9 µM, a TGI [12] of 34.4 µM and a GI50 [13] of 12.7 µM. The TGI [13] was 45.6 µM, the GI50 [54] was 20.2 µM and the TGI [54] was greater than 50 µM. The GI50 [14] was 8.77 µM, the TGI [14] was 21.4 µM and the GI50 [15] was 8.44 µM. For the same compound, the TGI [15] was 21.3 µM, the GI50 [16] was 14.8 µM and the TGI [16] was 48.6 µM. For the same compound, the GI50 [17] was 15.9 µM, the TGI [17] was 42.6 µM and the GI50 [18] was 25.7 µM. The TGI [18] was greater than 50 µM, the GI50 [19] was 17.9 µM and the TGI [19] was greater than 50 µM. For the same compound, the GI50 [20] was 12.6 µM, the TGI [20] was 41.3 µM and the GI50 [21] was 11.4 µM. It also gave a TGI [21] of 30 µM, a GI50 [23] of 17.3 µM and a TGI [23] greater than 50 µM. It also gave a GI50 [55] of 13.8 µM, a TGI [55] greater than 50 µM and a GI50 [24] of 16 µM. The TGI [24] was 39.8 µM, the GI50 [25] was 10.6 µM and the TGI [25] was 24.5 µM. It also gave a GI50 [26] of 9.07 µM, a TGI [26] of 30.4 µM and a GI50 [27] of 10.8 µM. The TGI [27] was greater than 50 µM, the GI50 [28] was 12.7 µM and the TGI [28] was 41.6 µM. The GI50 [30] was 12.6 µM, the TGI [30] was greater than 50 µM and the GI50 [31] was 22.4 µM. It also gave a TGI [31] greater than 50 µM, a GI50 [32] of 10.3 µM and a TGI [32] of 29.6 µM. The GI50 [33] was 36.8 µM, the TGI [33] was greater than 50 µM and the GI50 [34] was 30.3 µM. It also gave a TGI [34] greater than 50 µM, a GI50 [35] of 14.3 µM and a TGI [35] greater than 50 µM. For the same compound, the GI50 [36] was 7.39 µM, the TGI [36] was 46.4 µM and the GI50 [37] was 8.87 µM. The TGI [37] was 17.8 µM, the GI50 [38] was 31.3 µM and the TGI [38] was greater than 50 µM. For the same compound, the GI50 [39] was 16.1 µM, the TGI [39] was 30.7 µM and the GI50 [40] was 18.4 µM. It also gave a TGI [40] greater than 50 µM, a GI50 [41] of 13.1 µM and a TGI [41] of 45.4 µM. The GI50 [42] was 19.6 µM, the TGI [42] was greater than 50 µM and the GI50 [43] was 13.4 µM. It also gave a TGI [43] of 36.4 µM, a GI50 [44] of 18.1 µM and a TGI [44] greater than 50 µM. For the same compound, the GI50 [45] was 17 µM, the TGI [45] was greater than 50 µM and the GI50 [46] was 8.68 µM. For the same compound, the TGI [46] was 24.9 µM, the GI50 [47] was 22.8 µM and the TGI [47] was greater than 50 µM. It also gave a GI50 [48] of 11.7 µM, a TGI [48] of 42.9 µM and a GI50 [49] of 6.62 µM. The TGI [49] was 25.4 µM, the GI50 [50] was 12.7 µM and the TGI [50] was 36.7 µM.

From PubChem BioAssay (NCI)
